Assay: wn = mass fraction of the nth substance listed
Conditions: Liquid; for mass density: Vibrating tube method; for viscosity: Falling or rolling sphere viscometry

CC(C)Cc1ccccc1 [(2-methylpropyl)benzene] + CCCCCCCCCCCC
Conditions | mass density [kg/m3] | viscosity [mPa·s]
293.15 K, 100 kPa, w2 = 0.5 | 795.4 | –
293.15 K, 2000 kPa, w2 = 0.5 | 796.7 | –
293.15 K, 4000 kPa, w2 = 0.5 | 798.1 | –
293.15 K, 6000 kPa, w2 = 0.5 | 799.5 | –
293.15 K, 8000 kPa, w2 = 0.5 | 801.1 | –
293.15 K, 10000 kPa, w2 = 0.5 | 802.5 | –
293.15 K, 12000 kPa, w2 = 0.5 | 803.7 | –
293.15 K, 14000 kPa, w2 = 0.5 | 805 | –
293.15 K, 16000 kPa, w2 = 0.5 | 806.3 | –
293.15 K, 18000 kPa, w2 = 0.5 | 807.6 | –
293.15 K, 20000 kPa, w2 = 0.5 | 808.9 | –
295.65 K, 100 kPa, w2 = 0.5 | 793.6 | –
295.65 K, 2000 kPa, w2 = 0.5 | 794.9 | –
295.65 K, 4000 kPa, w2 = 0.5 | 796.3 | –
295.65 K, 6000 kPa, w2 = 0.5 | 797.7 | –
295.65 K, 8000 kPa, w2 = 0.5 | 799.1 | –
295.65 K, 10000 kPa, w2 = 0.5 | 800.5 | –
295.65 K, 12000 kPa, w2 = 0.5 | 801.8 | –
295.65 K, 14000 kPa, w2 = 0.5 | 803.1 | –
295.65 K, 16000 kPa, w2 = 0.5 | 804.3 | –
295.65 K, 18000 kPa, w2 = 0.5 | 805.6 | –
295.65 K, 20000 kPa, w2 = 0.5 | 806.8 | –
298.15 K, 100 kPa, w1 = 0.48 | 789.5 | –
298.15 K, 100 kPa, w1 = 0.49 | 790.4 | –
298.15 K, 100 kPa, w1 = 0.5 | 791.7 | –
298.15 K, 100 kPa, w1 = 0.51 | 792.7 | –
298.15 K, 100 kPa, w1 = 0.52 | 793.6 | –
298.15 K, 100 kPa, w2 = 0.5 | 791.7 | 1.09
298.15 K, 2000 kPa, w1 = 0.48 | 790.9 | –
298.15 K, 2000 kPa, w1 = 0.49 | 792 | –
298.15 K, 2000 kPa, w1 = 0.5 | 793.1 | –
298.15 K, 2000 kPa, w1 = 0.51 | 794.1 | –
298.15 K, 2000 kPa, w1 = 0.52 | 795.2 | –
298.15 K, 2000 kPa, w2 = 0.5 | 793.1 | –
298.15 K, 4000 kPa, w1 = 0.48 | 792.4 | –
298.15 K, 4000 kPa, w1 = 0.49 | 793.5 | –
298.15 K, 4000 kPa, w1 = 0.5 | 794.5 | –
298.15 K, 4000 kPa, w1 = 0.51 | 795.7 | –
298.15 K, 4000 kPa, w1 = 0.52 | 796.6 | –
298.15 K, 4000 kPa, w2 = 0.5 | 794.5 | 1.14
298.15 K, 6000 kPa, w1 = 0.48 | 793.9 | –
298.15 K, 6000 kPa, w1 = 0.49 | 794.9 | –
298.15 K, 6000 kPa, w1 = 0.5 | 795.9 | –
298.15 K, 6000 kPa, w1 = 0.51 | 797 | –
298.15 K, 6000 kPa, w1 = 0.52 | 797.9 | –
298.15 K, 6000 kPa, w2 = 0.5 | 795.9 | –
298.15 K, 8000 kPa, w1 = 0.48 | 795.3 | –
298.15 K, 8000 kPa, w1 = 0.49 | 796.3 | –
298.15 K, 8000 kPa, w1 = 0.5 | 797.3 | –
298.15 K, 8000 kPa, w1 = 0.51 | 798.4 | –
298.15 K, 8000 kPa, w1 = 0.52 | 799.3 | –
298.15 K, 8000 kPa, w2 = 0.5 | 797.3 | –
298.15 K, 10000 kPa, w1 = 0.48 | 796.6 | –
298.15 K, 10000 kPa, w1 = 0.49 | 797.4 | –
298.15 K, 10000 kPa, w1 = 0.5 | 798.6 | –
298.15 K, 10000 kPa, w1 = 0.51 | 799.7 | –
298.15 K, 10000 kPa, w1 = 0.52 | 800.6 | –
298.15 K, 10000 kPa, w2 = 0.5 | 798.6 | 1.22
298.15 K, 12000 kPa, w1 = 0.48 | 797.9 | –
298.15 K, 12000 kPa, w1 = 0.49 | 798.7 | –
298.15 K, 12000 kPa, w1 = 0.5 | 799.9 | –
298.15 K, 12000 kPa, w1 = 0.51 | 801 | –
298.15 K, 12000 kPa, w1 = 0.52 | 801.9 | –
298.15 K, 12000 kPa, w2 = 0.5 | 799.9 | –
298.15 K, 14000 kPa, w1 = 0.48 | 799.2 | –
298.15 K, 14000 kPa, w1 = 0.49 | 800.1 | –
298.15 K, 14000 kPa, w1 = 0.5 | 801.3 | –
298.15 K, 14000 kPa, w1 = 0.51 | 802.3 | –
298.15 K, 14000 kPa, w1 = 0.52 | 803.2 | –
298.15 K, 14000 kPa, w2 = 0.5 | 801.3 | –
298.15 K, 16000 kPa, w1 = 0.48 | 800.5 | –
298.15 K, 16000 kPa, w1 = 0.49 | 801.3 | –
298.15 K, 16000 kPa, w1 = 0.5 | 802.6 | –
298.15 K, 16000 kPa, w1 = 0.51 | 803.5 | –
298.15 K, 16000 kPa, w1 = 0.52 | 804.5 | –
298.15 K, 16000 kPa, w2 = 0.5 | 802.6 | –
298.15 K, 18000 kPa, w1 = 0.48 | 801.7 | –
298.15 K, 18000 kPa, w1 = 0.49 | 802.6 | –
298.15 K, 18000 kPa, w1 = 0.5 | 803.8 | –
298.15 K, 18000 kPa, w1 = 0.51 | 804.7 | –
298.15 K, 18000 kPa, w1 = 0.52 | 805.7 | –
298.15 K, 18000 kPa, w2 = 0.5 | 803.8 | –
298.15 K, 20000 kPa, w1 = 0.48 | 803.1 | –
298.15 K, 20000 kPa, w1 = 0.49 | 803.9 | –
298.15 K, 20000 kPa, w1 = 0.5 | 805.1 | –
298.15 K, 20000 kPa, w1 = 0.51 | 806 | –
298.15 K, 20000 kPa, w1 = 0.52 | 807 | –
298.15 K, 20000 kPa, w2 = 0.5 | 805.1 | –
300.65 K, 100 kPa, w2 = 0.5 | 789.9 | –
300.65 K, 2000 kPa, w2 = 0.5 | 791.2 | –
300.65 K, 4000 kPa, w2 = 0.5 | 792.6 | –
300.65 K, 6000 kPa, w2 = 0.5 | 794 | –
300.65 K, 8000 kPa, w2 = 0.5 | 795.4 | –
300.65 K, 10000 kPa, w2 = 0.5 | 796.8 | –
300.65 K, 12000 kPa, w2 = 0.5 | 798.1 | –
300.65 K, 14000 kPa, w2 = 0.5 | 799.4 | –
300.65 K, 16000 kPa, w2 = 0.5 | 800.7 | –
300.65 K, 18000 kPa, w2 = 0.5 | 802 | –
300.65 K, 20000 kPa, w2 = 0.5 | 803.3 | –
303.15 K, 100 kPa, w2 = 0.5 | 788.1 | –
303.15 K, 2000 kPa, w2 = 0.5 | 789.6 | –
303.15 K, 4000 kPa, w2 = 0.5 | 791.1 | –
303.15 K, 6000 kPa, w2 = 0.5 | 792.5 | –
303.15 K, 8000 kPa, w2 = 0.5 | 794 | –
303.15 K, 10000 kPa, w2 = 0.5 | 795.4 | –
303.15 K, 12000 kPa, w2 = 0.5 | 796.7 | –
303.15 K, 14000 kPa, w2 = 0.5 | 798.1 | –
303.15 K, 16000 kPa, w2 = 0.5 | 799.4 | –
303.15 K, 18000 kPa, w2 = 0.5 | 800.8 | –
303.15 K, 20000 kPa, w2 = 0.5 | 802 | –

From the NIST ThermoML archive (doi:10.1021/je8008073)
